From patent publication US6716831B1, “2,4-diamino-pyrimidine deprivatives having anti-cell proliferative activity” (AstraZeneca AB, priority 1999, dated 2004)
pIC50: −log10 of the molar value.

Target: T1, human Focal Adhesion Kinase (FAK) (Homo sapiens, UniProt Q05397)
T1 construct: FAK (full length human cDNA described by Andre et al); 6-histidine tag (N); made in house; host or cells: Sf21 insect cells (baculovirus, pFastbac 1)
Test: FAK3 Kinase Inhibition Assay
Format: biochemical
Settings: in vitro enzyme assay, Poly (Glu, Ala, Tyr) substrate; read-out: FAK inhibitory activity IC50
From the text: FAK3 Kinase Inhibition Assay
This assay determines the ability of a test compound to inhibit tyrosine kinase activity of human Focal Adhesion Kinase (FAK).
DNA encoding FAK is obtained by total gene synthesis (Edwards M, International Biotechnology Lab 5(3), 19-25, 1987) or by cloning. These are then expressed in a suitable expression system to obtain polypeptide with tyrosine kinase activity.
Active FAK protein has been previously expressed in a baculovirus system using a similar N-terminal 6-histidine tag (Protein Expression And Purification, 1996, 7: 12-18). The human FAK cDNA was cloned into the baculovirus transplacement vector, pFastbac 1 (Life Technologies), and the recombinant construct was co-transfected into insect cells (for example Spodoptera frugiperda 21(Sf21)) with viral DNA to prepare recombinant baculovirus (details of the methods for the assembly of recombinant DNA molecules and the preparation and use of recombinant baculovirus can be found in standard texts for example Sambrook et al, 1989, Molecular cloning—A Laboratory Manual, 2nd edition, Cold Spring Harbour Laboratory Press and O'Reilly et al, 1992, Baculovirus Expression Vectors—A Laboratory Manual, W.H. Freeman and Co, New York. Details specific to the use of the pFastbac (‘Bac to Bac’) system are provided in Anderson et al., 1995, FOCUS (Life Technologies Bulletin Magazine), 17, p53.) […]

T1 sequence (Q05397 whole entry): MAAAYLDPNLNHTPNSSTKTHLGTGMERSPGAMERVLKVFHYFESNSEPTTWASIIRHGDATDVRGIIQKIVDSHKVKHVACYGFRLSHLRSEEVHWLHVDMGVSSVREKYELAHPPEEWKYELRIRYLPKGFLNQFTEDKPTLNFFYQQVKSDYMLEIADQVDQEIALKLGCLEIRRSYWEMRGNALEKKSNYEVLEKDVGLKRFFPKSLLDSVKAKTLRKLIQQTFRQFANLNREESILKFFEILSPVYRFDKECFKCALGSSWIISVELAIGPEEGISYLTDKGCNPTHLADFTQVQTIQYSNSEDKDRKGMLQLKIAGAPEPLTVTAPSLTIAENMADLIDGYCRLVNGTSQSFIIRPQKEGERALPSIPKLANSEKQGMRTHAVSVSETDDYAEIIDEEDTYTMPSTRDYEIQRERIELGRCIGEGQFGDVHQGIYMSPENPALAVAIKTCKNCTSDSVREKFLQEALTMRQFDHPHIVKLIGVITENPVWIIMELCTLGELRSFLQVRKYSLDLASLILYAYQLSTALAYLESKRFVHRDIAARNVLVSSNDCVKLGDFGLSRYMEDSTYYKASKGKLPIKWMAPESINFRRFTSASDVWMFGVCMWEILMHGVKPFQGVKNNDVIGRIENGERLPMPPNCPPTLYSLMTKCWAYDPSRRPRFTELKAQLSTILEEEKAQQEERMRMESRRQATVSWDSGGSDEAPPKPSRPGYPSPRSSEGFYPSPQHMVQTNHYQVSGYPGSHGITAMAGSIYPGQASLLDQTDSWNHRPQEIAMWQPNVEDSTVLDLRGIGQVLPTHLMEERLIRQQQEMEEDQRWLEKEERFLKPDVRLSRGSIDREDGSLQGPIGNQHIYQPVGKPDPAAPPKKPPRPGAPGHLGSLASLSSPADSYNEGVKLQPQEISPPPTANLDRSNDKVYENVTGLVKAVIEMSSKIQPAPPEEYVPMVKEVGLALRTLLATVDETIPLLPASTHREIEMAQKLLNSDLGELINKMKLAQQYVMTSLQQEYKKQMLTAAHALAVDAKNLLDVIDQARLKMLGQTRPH

pIC50: 6.26
Structure (SMILES): CN(C)CC(O)COc1ccc(Nc2nccc(N3CCc4cc(Br)ccc43)n2)cc1 (stereo not shown) [Example 3]
